{"source": "patent US20220074923A1", "about": "“METHODS OF IDENTIFYING PARKIN-MEDIATED MITOPHAGY ACTIVATING AGENTS” (THE GOVERNING COUNCIL OF THE UNIVERSITY OF TORONTO, priority 2018, published 2022)", "key": {"HEK293 GFP Parkin cells": {"tested_on": "HEK293 GFP Parkin cells", "experiment": "Parkin recruitment assay", "assay_type": "cell-based", "method": "HEK293 GFP Parkin cells were seeded into 12-well plates containing coverslips. Cells were treated with small molecules for 2 hours prior to mitophagy induction with 10 μM CCCP, unless indicated otherwise. Following fixation with 4% PFA, immunostaining was carried out using anti-ATP5A primary antibody and anti-mouse Alex Fluor 568.\nTo measure the percentage of cells with Parkin localized to mitochondria a 2 step process was employed: (1) whole cell segmentation based on GFP Parkin using CellProfiler software and (2) classification into Parkin distribution subpopulation using CellProfiler Analyst. The percentage of cells with Parkin localized to mitochondria was determined in each image. Images were taken at 20× magnification for this experiment, resulting in the classification of at least 300 cells in each treatment group per trial."}, "HeLa cells": {"tested_on": "HeLa cells", "experiment": "Mito-QC assay (targeting of mitochondria to lysosomes)", "assay_type": "cell-based", "conditions": "0.5 μM 2 h pre-treatment, 10 μM CCCP 6 h with E-64 and leupeptin", "method": "HeLa cells were seeded into 6-well plates containing glass coverslips and allowed to adhere overnight. Cells were co-transfected with RGOMP25 and Cerulean-Parkin plasmids 24 hours prior to treatments. E-64 and leupeptin were added along with either DMSO or 10 μM CCCP for 6 hours prior followed by a PBS wash, fixation with 4% PFA and a final PBS wash prior to mounting onto glass slides with Fluoromount.\nCells were treated with 50 μM chloroquine for 16 hours prior to addition of E64, leupeptin, SR3677 and CCCP in the indicated treatment group. For the in vivo mitoQC assays, 5 7-day old male TH-GAL4>UAS-mitoQC were placed into vials containing water (control), sublethal 1 mM paraquat, 1 mM SR3677 alone and in combination with paraquat for 7 days. […] Fly brains were mounted in VectaShield™ mounting medium for imaging using the Zeiss LSM700 confocal fluorescence microscope with 40× 1.4 NA Oil Plan-APOCRAMAT objective and the appropriate lasers and filter. […]\nQuantification of the RG assay was done using Fiji software. […] A red/green fluorescence intensity ratio was determined for each pixel. Pixels were considered red-only if the red/green fluorescence ratio was greater than or equal to 1.5. The area of red-only pixels over the total non-background area was determined and averaged across 4 independent trials in which at least 20 cells were quantified per treatment."}, "[1]": {"tested_on": "differentiated SH-SY5Y cells", "experiment": "Cell viability determination (ATP levels normalized to protein)", "assay_type": "cell-based", "conditions": "24 hours", "method": "SH-SY5Y cells were differentiated according to previously established protocol consisting of sequential treatment with retinoic acid followed by brain-derived neurotrophic factor^10. Cells were then seeded into white 96-well plates with white bottom and allowed to adhere overnight. Varying doses of SR3677 were combined with 500 μM paraquat and administered for 24 hours. Controls treated with 0.5 μM SR3677, equivalent volume DMSO and paraquat alone were also included. Following 24-hour incubation, cell media was aspirated and THE lysis buffer (50 mM Tris-HCl, 100 mM NaCl, 0.1 mM EDTA) containing protease inhibitor cocktail was added to each well. Half of the lysate volume was removed and aliquoted into a separate 96-well plate. ATP levels were measured in the opaque plate using the ATP determination (ThermoFisher A22066) assay kit and protein concentrations were measured using the Pierce BCA (ThermoFisher #23225) assay kit. ATP levels were normalized to protein concentration and then by the ratio for cells treated with paraquat alone in a control well on each plate."}, "TH-GAL4>UAS-mitoQC flies": {"tested_on": "TH-GAL4>UAS-mitoQC flies", "experiment": "In vivo mitoQC assay in dopaminergic neurons", "set-up": "species or system Drosophila", "conditions": "SR3677 with sublethal paraquat dose (1 mM), 7 days, vs water", "method": "Cells were treated with 50 μM chloroquine for 16 hours prior to addition of E64, leupeptin, SR3677 and CCCP in the indicated treatment group. For the in vivo mitoQC assays, 5 7-day old male TH-GAL4>UAS-mitoQC were placed into vials containing water (control), sublethal 1 mM paraquat, 1 mM SR3677 alone and in combination with paraquat for 7 days. Whole flies were then fixed overnight in 1% PFA and 0.1% Tx-100. Fly brains were then dissected and fixed with 4% PFA for 20 minutes. 3 10-minute PBS washes were performed in between each step. Fly brains were mounted in VectaShield™ mounting medium for imaging using the Zeiss LSM700 confocal fluorescence microscope with 40× 1.4 NA Oil Plan-APOCRAMAT objective and the appropriate lasers and filter. 0.8 μm z-stacks were acquired to capture dopaminergic neurons expressing the mitoQC transgene. Laser settings were kept constant within each trial. At least 2 fly brains were imaged for each treatment across 4 independent trials.\nThe mitoQC assay may also be performed in Drosophila to quantify mitophagy specifically in cell types of interest using the GAL4/UAS system. Briefly, the mitoQC transgene was expressed in dopaminergic neurons using the TH-GAL4 driver^41. Since CCCP cannot be administered without affecting the viability of the flies, 7-day old flies were fed the parkinsonian toxin, paraquat. […]"}, "[2]": {"conditions": "in vivo; cited from earlier work"}}, "data": [{"smiles": "CN(C)CCOc1cc(-c2cn[nH]c2)ccc1NC(=O)[C@@H]1COc2ccccc2O1", "note": "[SR3677]", "values": [{"measurement": "Parkin recruitment to damaged mitochondria", "setting": "HEK293 GFP Parkin cells; 0.5 μM, 17 hour and 2 hour pre-incubation, CCCP", "value": "increased Parkin recruitment to damaged mitochondria"}, {"measurement": "EC50", "setting": "HEK293 GFP Parkin cells; Homo sapiens, HEK293, 2 h pre-treatment, then 10 μM CCCP 1 h, read-out: EC50, percentage of cells with mitochondrial Parkin", "value": 57, "unit": "nM"}, {"measurement": "Parkin distribution in the absence of CCCP", "setting": "HEK293 GFP Parkin cells; compound alone", "value": "diffuse"}, {"measurement": "concentration at which the maximal effect on Parkin recruitment was achieved", "setting": "HEK293 GFP Parkin cells; dose series, CCCP", "value": "≤ 0.5", "unit": "µM"}, {"measurement": "mitochondrial targeting to lysosomes (red-only mitochondrial area)", "setting": "HeLa cells", "value": "increased the extent of mitochondrial targeting to lysosomes"}, {"measurement": "cell viability, compound alone", "setting": "[1]; 0.5 μM", "value": "did not affect cell viability"}, {"measurement": "viability of cells challenged with paraquat", "setting": "[1]; varying concentrations with 500 μM paraquat", "value": "improved the viability of cells challenged with paraquat in a dose-dependent manner"}, {"measurement": "percentage of red-only mitochondrial signal over the total mitochondrial signal", "setting": "TH-GAL4>UAS-mitoQC flies", "value": "greater than flies whose food was supplemented with water"}, {"measurement": "bioavailability", "setting": "[2]", "value": "poor bioavailability"}]}]}
